In PubChem BioAssay (NCI):
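How tested: cells in 96-well plates exposed to compound for 48 hours at five concentrations. Here, GI50 denotes the concentration required for 50% inhibition of growth. TGI marks complete inhibition of growth.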

What was measured:
Test in all cases: NCI tumour cell line growth inhibition, 48 h
SNB-75 CNS = tested on: SNB-75 CNS
SW-620 colon = tested on: SW-620 colon
SF-295 CNS = tested on: SF-295 CNS
RPMI-8226 leukemia = tested on: RPMI-8226 leukemia
HOP-62 NSCLC = tested on: HOP-62 NSCLC
SK-MEL-5 melanoma = tested on: SK-MEL-5 melanoma
HCT-116 colon = tested on: HCT-116 colon
EKVX NSCLC = tested on: EKVX NSCLC
COLO 205 colon = tested on: COLO 205 colon
HCT-15 colon = tested on: HCT-15 colon
T-47D breast = tested on: T-47D breast
CAKI-1 renal = tested on: CAKI-1 renal
NCI-H522 lung = tested on: NCI-H522 lung
IGROV1 ovarian = tested on: IGROV1 ovarian
SR leukemia = tested on: SR leukemia
OVCAR-4 ovarian = tested on: OVCAR-4 ovarian
MDA-MB-231 breast = tested on: MDA-MB-231 breast
OVCAR-3 ovarian = tested on: OVCAR-3 ovarian
A549 NSCLC = tested on: A549 NSCLC
SF-268 CNS = tested on: SF-268 CNS
KM12 colon = tested on: KM12 colon
MALME-3M melanoma = tested on: MALME-3M melanoma
SN12C renal = tested on: SN12C renal
CCRF-CEM leukemia = tested on: CCRF-CEM leukemia
NCI-H460 lung = tested on: NCI-H460 lung
NCI/ADR-RES ovarian = tested on: NCI/ADR-RES ovarian
BT-549 breast = tested on: BT-549 breast
ACHN renal = tested on: ACHN renal
SK-OV-3 ovarian = tested on: SK-OV-3 ovarian
NCI-H226 lung = tested on: NCI-H226 lung
HS 578T breast = tested on: HS 578T breast
PC-3 prostate = tested on: PC-3 prostate
RXF 393 renal = tested on: RXF 393 renal
OVCAR-8 ovarian = tested on: OVCAR-8 ovarian
SNB-19 CNS = tested on: SNB-19 CNS
HCC-2998 colon = tested on: HCC-2998 colon
SF-539 CNS = tested on: SF-539 CNS
K-562 leukemia = tested on: K-562 leukemia
786-0 renal = tested on: 786-0 renal
UO-31 renal = tested on: UO-31 renal
TK-10 renal = tested on: TK-10 renal
UACC-62 melanoma = tested on: UACC-62 melanoma
OVCAR-5 ovarian = tested on: OVCAR-5 ovarian
UACC-257 melanoma = tested on: UACC-257 melanoma
LOX IMVI melanoma = tested on: LOX IMVI melanoma
SK-MEL-2 melanoma = tested on: SK-MEL-2 melanoma
U251 CNS = tested on: U251 CNS
HOP-92 NSCLC = tested on: HOP-92 NSCLC
MOLT-4 leukemia = tested on: MOLT-4 leukemia
HT29 colon = tested on: HT29 colon
NCI-H23 lung = tested on: NCI-H23 lung
A498 renal = tested on: A498 renal
HL-60(TB) leukemia = tested on: HL-60(TB) leukemia
DU-145 prostate = tested on: DU-145 prostate
MDA-MB-435 = tested on: MDA-MB-435
MCF7 breast = tested on: MCF7 breast
SK-MEL-28 melanoma = tested on: SK-MEL-28 melanoma

SMILES: Cn1cnc2nc(Cl)nc(Cl)c21
- GI50 (SNB-75 CNS): 2480 nM
- TGI (SNB-75 CNS): 13.4 µM
- GI50 (SW-620 colon): 469 nM
- TGI (SW-620 colon): 15.5 µM
- GI50 (SF-295 CNS): 3.57 µM
- TGI (SF-295 CNS): > 100 µM
- GI50 (RPMI-8226 leukemia): 591 nM
- TGI (RPMI-8226 leukemia): 26.4 µM
- GI50 (HOP-62 NSCLC): 2550 nM
- TGI (HOP-62 NSCLC): > 100 µM
- GI50 (SK-MEL-5 melanoma): 2700 nM
- TGI (SK-MEL-5 melanoma): 10.8 µM
- GI50 (HCT-116 colon): 323 nM
- TGI (HCT-116 colon): 13.3 µM
- GI50 (EKVX NSCLC): 13.6 µM
- TGI (EKVX NSCLC): 34.8 µM
- GI50 (COLO 205 colon): 2180 nM
- TGI (COLO 205 colon): 5.27 µM
- GI50 (HCT-15 colon): 2580 nM
- TGI (HCT-15 colon): 20.7 µM
- GI50 (T-47D breast): 489 nM
- TGI (T-47D breast): 26.8 µM
- GI50 (CAKI-1 renal): 1080 nM
- TGI (CAKI-1 renal): 3.26 µM
- GI50 (NCI-H522 lung): 1170 nM
- TGI (NCI-H522 lung): 3.26 µM
- GI50 (IGROV1 ovarian): 2470 nM
- TGI (IGROV1 ovarian): 37.7 µM
- GI50 (SR leukemia): 599 nM
- TGI (SR leukemia): 28.7 µM
- GI50 (OVCAR-4 ovarian): 4.7 µM
- TGI (OVCAR-4 ovarian): 17.6 µM
- GI50 (MDA-MB-231 breast): 4.26 µM
- TGI (MDA-MB-231 breast): 33.2 µM
- GI50 (OVCAR-3 ovarian): 1840 nM
- TGI (OVCAR-3 ovarian): 6.12 µM
- GI50 (A549 NSCLC): 3.68 µM
- TGI (A549 NSCLC): > 100 µM
- GI50 (SF-268 CNS): 3.22 µM
- TGI (SF-268 CNS): 38.2 µM
- GI50 (KM12 colon): 430 nM
- TGI (KM12 colon): 2460 nM
- GI50 (MALME-3M melanoma): 13.6 µM
- TGI (MALME-3M melanoma): 50.3 µM
- GI50 (SN12C renal): 3.37 µM
- TGI (SN12C renal): 24.1 µM
- GI50 (CCRF-CEM leukemia): 840 nM
- TGI (CCRF-CEM leukemia): 22.1 µM
- GI50 (NCI-H460 lung): 2040 nM
- TGI (NCI-H460 lung): 6.12 µM
- GI50 (NCI/ADR-RES ovarian): 2760 nM
- TGI (NCI/ADR-RES ovarian): 13 µM
- GI50 (BT-549 breast): 10.7 µM
- TGI (BT-549 breast): 66.6 µM
- GI50 (ACHN renal): 1440 nM
- TGI (ACHN renal): 18.5 µM
- GI50 (SK-OV-3 ovarian): 4.32 µM
- TGI (SK-OV-3 ovarian): > 100 µM
- GI50 (NCI-H226 lung): 12.4 µM
- TGI (NCI-H226 lung): 31.4 µM
- GI50 (HS 578T breast): 2280 nM
- TGI (HS 578T breast): 7.53 µM
- GI50 (PC-3 prostate): 594 nM
- TGI (PC-3 prostate): 12.8 µM
- GI50 (RXF 393 renal): 2390 nM
- TGI (RXF 393 renal): 7.09 µM
- GI50 (OVCAR-8 ovarian): 3.5 µM
- TGI (OVCAR-8 ovarian): 26.2 µM
- GI50 (SNB-19 CNS): 5.79 µM
- TGI (SNB-19 CNS): 57.8 µM
- GI50 (HCC-2998 colon): 3.85 µM
- TGI (HCC-2998 colon): 15.6 µM
- GI50 (SF-539 CNS): 924 nM
- TGI (SF-539 CNS): 5.53 µM
- GI50 (K-562 leukemia): 713 nM
- TGI (K-562 leukemia): 94.7 µM
- GI50 (786-0 renal): 1010 nM
- TGI (786-0 renal): > 100 µM
- GI50 (UO-31 renal): 9.96 µM
- TGI (UO-31 renal): > 100 µM
- GI50 (TK-10 renal): 3.84 µM
- TGI (TK-10 renal): 26.2 µM
- GI50 (UACC-62 melanoma): 1790 nM
- TGI (UACC-62 melanoma): 19.7 µM
- GI50 (OVCAR-5 ovarian): 3.56 µM
- TGI (OVCAR-5 ovarian): 19.9 µM
- GI50 (UACC-257 melanoma): 7.84 µM
- TGI (UACC-257 melanoma): 24.8 µM
- GI50 (LOX IMVI melanoma): 406 nM
- TGI (LOX IMVI melanoma): 16.8 µM
- GI50 (SK-MEL-2 melanoma): 2700 nM
- TGI (SK-MEL-2 melanoma): 10.2 µM
- GI50 (U251 CNS): 3.27 µM
- TGI (U251 CNS): 11.7 µM
- GI50 (HOP-92 NSCLC): 2090 nM
- TGI (HOP-92 NSCLC): 10.5 µM
- GI50 (MOLT-4 leukemia): 5.26 µM
- TGI (MOLT-4 leukemia): 36.2 µM
- GI50 (HT29 colon): 365 nM
- TGI (HT29 colon): 12.6 µM
- GI50 (NCI-H23 lung): 10.4 µM
- TGI (NCI-H23 lung): 34.2 µM
- GI50 (A498 renal): 2200 nM
- TGI (A498 renal): 6.77 µM
- GI50 (HL-60(TB) leukemia): 3.16 µM
- TGI (HL-60(TB) leukemia): 8.08 µM
- GI50 (DU-145 prostate): 1650 nM
- TGI (DU-145 prostate): 4.87 µM
- GI50 (MDA-MB-435): 445 nM
- TGI (MDA-MB-435): 13.7 µM
- GI50 (MCF7 breast): 335 nM
- TGI (MCF7 breast): 13.2 µM
- GI50 (SK-MEL-28 melanoma): 4.35 µM
- TGI (SK-MEL-28 melanoma): 16.5 µM
